In article PMC7377239, “Cardiovascular Effects of Polychlorinated Biphenyls and Their Major Metabolites” (Environmental Health Perspectives, 2020):

Key:
[1] = system: iCell endothelial cells (human iPSC-derived ECs); experiment: Tube formation (tubulogenesis) assay in iCell endothelial cells, 18 h; format: cell-based; details: Homo sapiens, Endothelial cell, endothelial cells (endo), 18 hr
In short: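 Tube formation was measured by calcein AM imaging after overnight compound exposure (37°C, 0.5% DMSO vehicle) of human iPSC-derived ECs, 7,500/well, on reduced-growth-factor Geltrex in starvation medium. Vehicle-normalized data fitted to four-parameter logistic; POD set at one vehicle SD; without response, 100 μM taken as NOAEL.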

[2] = system: iCell endothelial cells (human iPSC-derived ECs); experiment: High-content imaging cytotoxicity in iCell endothelial cells, 24 h; format: cell-based; details: Homo sapiens, Endothelial cell, endothelial cells (endo), 24 hr
In short: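 Readouts were vehicle-normalised and fitted to a four-parameter logistic model. POD was set at one SD beyond 0.5% DMSO control means, and 100 µM was assigned when no response was seen. Cells were monolayers of iCell endothelial cells imaged after 24 h compound exposure using nuclear, mitochondrial and calcein dyes.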

Clc1cc(Cl)c(-c2cc(Cl)c(Cl)cc2Cl)cc1Cl [PCB 153, 2,2′,4,4′,5,5′-hexachlorobiphenyl]
minimal effective concentration ([1]; tube formation mtl, read-out: POD endo.mtl.18hr): 0.007 µM
minimal effective concentration ([1]; tube formation tlps, read-out: POD endo.tlps.18hr): 1.93 µM
minimal effective concentration ([1]; tube formation tta, read-out: POD endo.tta.18hr): 3.83 µM
minimal effective concentration ([1]; tube formation ttl, read-out: POD endo.ttl.18hr): 0.58 µM
minimal effective concentration ([2]; cyto, read-out: POD endo.cyto.24hr): 18.6 µM
minimal effective concentration ([2]; mito, read-out: POD endo.mito.24hr): 18.6 µM
minimal effective concentration ([2]; mitoint, read-out: POD endo.mitoint.24hr): 0.07 µM
minimal effective concentration ([2]; nma, read-out: POD endo.nma.24hr): 62.5 µM
minimal effective concentration ([2]; tc, read-out: POD endo.tc.24hr): 49.2 µM
